According to US20090305894A1, “use of sulfonanilides as herbicide” (priority 2005, published 2009):

What was measured:
Assay type in all cases: in vivo
[1] = tested on: paddy rice seedlings (cultivar: Nihonbare); assay: Herbicide damage on transplanted paddy rice (Test Example 2, Table 9); settings: 60 g ai/ha, applied to water surface 5 days after transplantation, rated after 3 weeks; 100% = complete withering, 0% = no damage
Procedure: (§1) The formulations of active compounds were obtained as emulsions by mixing 1 part by weight of the active compound with the carrier and emulsifier in the described amounts. The formulations were diluted with water so as to adjust a prescribed dosage.
In a greenhouse each three paddy rice seedlings (cultivar: Nihonbare) were transplanted (transplantation depth 2 cm) in each pot filled with 500 cm^2 of paddy field soil and covered with water in about 2 to 3 cm depth. After 5 days from the transplantation, prescribed diluted solutions of the formulations of the respective active compounds obtained in the same manner as in Test Example 1 were applied to the water surface of each pot. After the treatment, the water depth of 3 cm was kept. The herbicide damage was investigated after 3 weeks of the treatment. The herbicide damage was rated as 100% in the case of complete withering and 0% in the case of no herbicide damage. When the herbicide damage was 20% or lower, the safety as a paddy rice herbicide was evaluated to be excellent. As the representative examples, the test results of the compound Nos. 3, 4, 5, 6, 7, 70, 115, 127 and 128, and comparative compound C-2 are shown in Table 9.

[2] = tested on: Scirpus juncoides Roxburgh (resistant to sulfonylurea type herbicide); assay: Herbicidal efficacy test to weeds resistant to sulfonylurea type herbicide (Test Example 1, applied on water surface, Table 8); settings: 60 g ai/ha, applied on water surface at beginning of sprouting, rated after 3 weeks; 100% = complete withering, 0% = no effect
Procedure: (§2) Preparation of formulation of active compound
(§3) Carrier: DMF 5 parts by weight
(§4) Emulsifier: benzyloxypolyglycol ether 1 part by weight
as §1
(§5) In a greenhouse respective seeds of Scirpus juncoides Roxburgh (from Hokkaido, Japan) and Lindernia procumbens Philcox (from Saitama, Japan), which are confirmed to have resistance to a sulfonylurea type herbicide, were inoculated in pots filled with 500 cm^2 of paddy field soil and water was poured to the pot in about 2 to 3 cm depth. At the beginning of sprouting of the weeds, prescribed diluted solutions of the formulations of the respective active compounds obtained by the above-mentioned manner were applied on the water surface. After the treatment water depth of 3 cm was kept. The herbicidal effect was investigated after 3 weeks of the treatment. The herbicidal effect was rated as 100% in the case of complete withering and 0% in the case of no herbicidal effect. When the herbicidal effect was 80% or higher, the practical effectiveness as herbicides is recognized. As the representative examples, the test results of the compound Nos. 1, 3, 4, 5, 6, 7, 13, 70, 127, 128 and 130 are shown in Table 8.

[3] = tested on: Lindernia procumbens Philcox (resistant to sulfonylurea type herbicide); assay: as above; settings: 60 g ai/ha, applied on water surface at beginning of sprouting, rated after 3 weeks; 100% = complete withering, 0% = no effect
Procedure: as §2, §3, §4, §1, §5

COCc1cccc(C(O)c2nc(OC)cc(OC)n2)c1NS(=O)(=O)C(F)F (stereo not drawn) [C-2, reference compound] was tested. Which “Herbicide damage on transplanted paddy rice” value (shortened to “Herbicide damage”) [1] did it give?
Its value is 30%.

COc1nc(OC)nc(C(=O)c2cccc(OC)c2N(C)S(=O)(=O)C(F)F)n1 [compound 115] was tested. Which “Herbicide damage” value [1] did it give?
Its value is 0%.

With CCOc1cccc(C(O)c2nc(OC)cc(OC)n2)c1NS(=O)(=O)C(F)F (stereo not drawn) [compound 130] as the compound, how does the “Herbicidal effect to sulfonylurea resistant weeds: Scirpus juncoides Roxburgh (from Hokkaido)” value (“Herbicidal effect … (from Hokkaido)” below) [2] read?
Its value is 100%.

And the “Herbicidal effect to sulfonylurea resistant weeds: Lindernia procumbens Philcox (from Saitama pref.)” value (“Herbicidal effect … (from Saitama pref.)” below) [3]?
The value was 100%.

For COc1cc(OC)nc(C(O)c2ccc(F)c(F)c2NS(=O)(=O)C(F)F)n1 (stereo not drawn) [Compound No. 3, 2,3-Difluoro-6-[1-(4,6-dimethoxypyrimidin-2-yl)-1-hydroxymethyl]-N-difluoromethanesulfonanilide], which “Herbicidal effect … (from Hokkaido)” value [2] is on record?
The value was 100%.

And the “Herbicidal effect … (from Saitama pref.)” value [3]?
Its value is 100%.

What about the “Herbicide damage” value [1] of the same compound?
Its value is 10%.

Which results are given for COc1cc(OC)nc(C(O)c2ccc(F)c(OC)c2NS(=O)(=O)C(F)F)n1 (stereo not drawn) [compound 127]?
Herbicidal effect to sulfonylurea resistant weeds: Scirpus juncoides Roxburgh (from Hokkaido) [2]: 100%; Herbicidal effect to sulfonylurea resistant weeds: Lindernia procumbens Philcox (from Saitama pref.) [3]: 90%; Herbicide damage on transplanted paddy rice [1]: 0%

What does the source list for CCOc1ccccc1OS(=O)(=O)NC(=O)Nc1nc(OC)cc(OC)n1 [C-3, Ethoxysulfuron, reference compound]?
Herbicidal effect to sulfonylurea resistant weeds: Scirpus juncoides Roxburgh (from Hokkaido) [2]: 10%; Herbicidal effect to sulfonylurea resistant weeds: Lindernia procumbens Philcox (from Saitama pref.) [3]: 10%

With COc1cc(OC)nc(C(O)c2ccc(Cl)c(F)c2NS(=O)(=O)C(F)F)n1 (stereo not drawn) [compound 4, 2-fluoro-3-chloro-6-[1-(4,6-dimethoxypyrimidin-2-yl)-1-hydroxymethyl]-N-difluoromethanesulfonanilide] as the compound, how does the “Herbicidal effect … (from Hokkaido)” value [2] read?
The value was 100%.

And the “Herbicidal effect … (from Saitama pref.)” value [3]?
The value was 100%.

What about the “Herbicide damage” value [1] of the same compound?
Its value is 10%.

For COc1cc(OC)nc(C(O)c2c(F)ccc(F)c2NS(=O)(=O)C(F)F)n1 (stereo not drawn) [compound 7], which “Herbicidal effect … (from Hokkaido)” value [2] is on record?
The value was 100%.

And the “Herbicidal effect … (from Saitama pref.)” value [3]?
The value was 100%.

What about the “Herbicide damage” value [1] of the same compound?
Its value is 10%.
